The source made the active and inactive calls. The rule behind the calls is not given here.
Key:
[1] = target: T1, Peroxisome proliferator-activated receptor alpha (Homo sapiens) (UniProt Q07869); experiment: Activity at human PPARalpha expressed in CV1 cells using GAL4 chimeric system relative to control; type: cell-based; details: CV-1
T1 sequence (whole entry): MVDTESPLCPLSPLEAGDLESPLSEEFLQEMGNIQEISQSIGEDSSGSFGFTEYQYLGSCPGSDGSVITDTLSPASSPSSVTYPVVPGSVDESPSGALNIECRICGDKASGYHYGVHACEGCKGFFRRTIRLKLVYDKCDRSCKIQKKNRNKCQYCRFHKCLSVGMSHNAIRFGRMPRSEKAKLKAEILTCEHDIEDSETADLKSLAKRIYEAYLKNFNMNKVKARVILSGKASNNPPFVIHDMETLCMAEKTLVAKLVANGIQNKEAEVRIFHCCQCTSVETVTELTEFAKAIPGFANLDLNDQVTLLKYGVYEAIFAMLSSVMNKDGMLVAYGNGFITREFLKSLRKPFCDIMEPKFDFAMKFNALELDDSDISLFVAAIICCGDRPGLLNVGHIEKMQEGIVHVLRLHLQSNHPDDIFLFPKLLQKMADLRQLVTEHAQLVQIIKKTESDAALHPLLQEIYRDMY

[2] = target: T2, Peroxisome proliferator-activated receptor delta (Homo sapiens) (UniProt Q03181); experiment: Activity at human PPARdelta expressed in CV1 cells by cotransfection assay relative to control; type: cell-based; details: CV-1
T2 sequence (whole entry): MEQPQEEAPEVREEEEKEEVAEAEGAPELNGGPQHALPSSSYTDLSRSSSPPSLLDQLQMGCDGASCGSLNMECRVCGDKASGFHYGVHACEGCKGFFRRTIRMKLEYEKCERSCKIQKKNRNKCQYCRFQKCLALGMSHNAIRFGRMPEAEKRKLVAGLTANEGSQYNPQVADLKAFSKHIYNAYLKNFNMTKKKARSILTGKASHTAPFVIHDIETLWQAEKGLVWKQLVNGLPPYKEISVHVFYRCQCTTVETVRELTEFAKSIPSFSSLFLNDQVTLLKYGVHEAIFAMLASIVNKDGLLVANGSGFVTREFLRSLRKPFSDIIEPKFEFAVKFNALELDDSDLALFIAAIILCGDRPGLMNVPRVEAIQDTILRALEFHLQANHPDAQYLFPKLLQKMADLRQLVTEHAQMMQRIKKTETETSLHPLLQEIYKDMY

[3] = target: T1, Peroxisome proliferator-activated receptor alpha (Homo sapiens); experiment: (§1) Displacement of tritium labeled ligand from human PPARalpha by SPA assay
[4] = test system: Rattus norvegicus; experiment: Effect on glucose normalization in po dosed ZDF rat after 7 days; type: functional; details: 168 h, read-out: MED
[5] = Tmax in Beagle dog at 10 mg/kg, po; type: ADME, organism-based, Canis lupus familiaris; design: dose 10 mg/kg, route oral; details: in vivo
[6] = Oral bioavailability in Beagle dog at 10 mg/kg, po; type: ADME, organism-based, Canis lupus familiaris; details: in vivo
[7] = Tmax in F344 rat at 10 mg/kg, po; type: ADME, organism-based; design: dose 10 mg/kg, route oral; details: in vivo
[8] = Volume of distribution in F344 rat at 1 mg/kg, iv; type: ADME, organism-based; design: dose 1 mg/kg, route intravenous; details: in vivo, read-out: Vdss
[9] = Clearance in Beagle dog at 1 mg/kg, iv; type: ADME, organism-based, Canis lupus familiaris; design: dose 1 mg/kg, route intravenous; details: in vivo
[10] = Clearance in F344 rat at 1 mg/kg, iv; type: ADME, organism-based; design: dose 1 mg/kg, route intravenous; details: in vivo
[11] = Oral bioavailability in F344 rat at 10 mg/kg, po; type: ADME, organism-based; details: in vivo
[12] = Half life in F344 rat at 1 mg/kg, iv; type: ADME, organism-based; design: dose 1 mg/kg, route intravenous; details: in vivo
[13] = test system: Mus musculus; experiment: Reduction of glucose level in db/db mouse at 30 mg/kg, po after 7 days relative to control; type: functional; design: scale not given: the % may be the effect or the level left
[14] = Half life in Beagle dog at 1 mg/kg, iv; type: ADME, organism-based, Canis lupus familiaris; design: dose 1 mg/kg, route intravenous; details: in vivo
[15] = Volume of distribution in Beagle dog at 1 mg/kg, iv; type: ADME, organism-based, Canis lupus familiaris; design: dose 1 mg/kg, route intravenous; details: in vivo, read-out: Vdss
[16] = test system: Rattus norvegicus; experiment: Reduction of plasma triglyceride level in ZDF rat at 1 mg/kg, po after 7 days relative to control; type: functional; details: 168 h
[17] = target: T3, Peroxisome proliferator-activated receptor delta (Homo sapiens, UniProt Q03181); experiment: Activity at PPARdelta
T3 sequence (Q03181 whole entry): T2 sequence (whole entry)

[18] = target: T4, Peroxisome proliferator-activated receptor gamma (Homo sapiens, UniProt P37231)
T4 sequence (P37231 whole entry): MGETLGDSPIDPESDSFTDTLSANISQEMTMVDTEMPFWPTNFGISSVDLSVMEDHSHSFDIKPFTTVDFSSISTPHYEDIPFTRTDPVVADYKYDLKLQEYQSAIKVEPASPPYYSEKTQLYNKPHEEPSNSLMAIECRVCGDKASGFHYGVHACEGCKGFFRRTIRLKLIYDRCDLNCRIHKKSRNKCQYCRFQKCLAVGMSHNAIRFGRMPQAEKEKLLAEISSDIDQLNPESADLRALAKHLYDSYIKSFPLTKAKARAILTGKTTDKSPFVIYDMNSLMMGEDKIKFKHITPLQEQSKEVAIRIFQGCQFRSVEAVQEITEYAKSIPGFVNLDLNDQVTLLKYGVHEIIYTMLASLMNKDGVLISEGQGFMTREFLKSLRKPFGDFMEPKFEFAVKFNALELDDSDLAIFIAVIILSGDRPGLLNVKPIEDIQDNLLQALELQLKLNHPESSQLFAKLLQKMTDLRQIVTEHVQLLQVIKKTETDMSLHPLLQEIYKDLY
Description: Displacement of tritium labeled ligand from human PPARgamma by SPA assay

[19] = target: T5, Peroxisome proliferator-activated receptor alpha (Homo sapiens, UniProt Q07869); experiment: as §1
T5 sequence (Q07869 whole entry): T1 sequence (whole entry)

[20] = test system: Rattus norvegicus; experiment: Reduction of glucose level in ZDF rat at 1 mg/kg, po after 7 days relative to control; type: functional; design: scale not given: the % may be the effect or the level left

Structure (SMILES) | Efficacy [1] | Activity [13] | EC50 [18] | IC50 [18] | EC50 [19] | further results
Cc1oc(-c2ccc(-c3ccccc3)cc2)nc1CCOc1ccc(CCC(=O)O)c(CNC(=O)OC(C)C)c1 | 52% |  |  |  |  | 
CCCOC(=O)N1CCc2c(OCCc3nc(-c4ccc(-c5ccccc5)cc4)oc3C)ccc(CCC(=O)O)c2C1 [listing 1 of 2 here] | 27% |  |  |  |  | Efficacy [2]: 36%; Activity [3]: inactive
CCCOC(=O)N1CCc2c(OCCc3nc(-c4ccccc4)oc3C)ccc(CCC(=O)[O-])c2C1.[Na+] |  |  |  |  |  | minimal effective dose [4]: 0.28 mg/kg
CCCOC(=O)N1CCc2c(OCCc3nc(-c4ccc(-c5ccccc5)cc4)oc3C)ccc(CCC(=O)[O-])c2C1.[Na+] |  | 41% |  |  |  | Tmax [5]: 4 h; bioavailability [6]: 37%; minimal effective dose [4]: 0.19 mg/kg; Tmax [7]: 1 h; Vd [8]: 0.59 L/kg; clearance [9]: 1.24 mL/min/kg; clearance [10]: 1.37 mL/min/kg; bioavailability [11]: 35%; half-life [12]: 5 h; half-life [14]: 3.58 h; Vd [15]: 0.38 L/kg; ED50 [16]: 0.24 mg/kg
Cc1oc(-c2ccc(-c3ccccc3)cc2)nc1CCOc1ccc(CCC(=O)O)c2c1CCN(C(=O)OCC(C)(C)C)C2 [listing 1 of 2 here] | 18% |  |  |  |  | Activity [3]: inactive; Efficacy [3]: < 20%
C#CCOC(=O)N1CCc2c(OCCc3nc(-c4ccccc4)oc3C)ccc(CCC(=O)O)c2C1 | 38% | 37% | 0.077 µM | 0.024 µM | 2.78 µM | Efficacy [2]: 65%; EC50 [17]: 3.02 µM; IC50 [19]: 8.4 µM
Cc1oc(-c2ccc(-c3ccccc3)cc2)nc1CCOc1ccc(CCC(=O)O)c2c1CCN(C(=O)OCC(C)(C)C)C2 [listing 2 of 2 here] |  |  | 0.009 µM | 0.033 µM |  | 
Cc1oc(-c2ccccc2)nc1CCOc1ccc(CCC(=O)O)c2c1CCN(C(=O)OCC(C)C)C2 | 40% | 27% | 0.008 µM | 0.017 µM | 1.72 µM | minimal effective dose [4]: 0.25 mg/kg; IC50 [19]: 3.42 µM
CCCOC(=O)N1CCc2c(OCCc3nc(-c4ccc(-c5ccccc5)cc4)oc3C)ccc(CCC(=O)O)c2C1 [listing 2 of 2 here] |  |  | 0.003 µM | 0.021 µM | 2.39 µM | EC50 [17]: 2.75 µM
Cc1oc(-c2ccccc2)nc1CCOc1ccc(C[C@H](Nc2ccccc2C(=O)c2ccccc2)C(=O)O)cc1 | 66% |  |  |  |  | 
CCCOC(=O)N1CCc2c(OCCc3nc(-c4ccccc4)oc3C)ccc(CCC(=O)O)c2C1 [listing 1 of 2 here] | 47% |  |  |  |  | 
CC(C)(Oc1ccc(C(=O)c2ccc(Cl)cc2)cc1)C(=O)O [FENOFIBRIC ACID] | 75% |  |  |  | > 10 µM | IC50 [19]: > 10 µM
Cc1c(C)c2c(c(C)c1O)CCC(C)(COc1ccc(CC3SC(=O)NC3=O)cc1)O2 (stereo not drawn) | 0% |  |  |  |  | Activity [3]: inactive
CN(CCOc1ccc(CC2SC(=O)NC2=O)cc1)c1ccccn1 (stereo not drawn) [ROSIGLITAZONE] |  | 29% |  |  |  | minimal effective dose [4]: 0.25 mg/kg
Cc1oc(-c2ccc(-c3ccccc3)cc2)nc1CCOc1ccc(CCC(=O)[O-])c2c1CCN(C(=O)OCC(C)(C)C)C2.[Na+] |  | 49% |  |  |  | Activity [20]: 23%
CCCOC(=O)N1CCc2c(OCCc3nc(-c4ccccc4)oc3C)ccc(CCC(=O)O)c2C1 [listing 2 of 2 here] |  | 62% | 0.012 µM | 0.011 µM | 0.561 µM | IC50 [19]: 4.68 µM

Reference: ChEMBL document CHEMBL1146163 (Bioorg Med Chem Lett, 2006)
